Laboratory results from US6890923B2, “Compounds” (AstraZeneca AB, priority 2002, dated 2005).

| SMILES | melting point [°C] |
| --- | --- |
| CC(C)Cn1c(=O)n(C)c(=O)c2c(-c3ccsc3)c(Cc3ccccc3C(F)(F)F)sc21 [Example 6, 3-Methyl-1-(2-methylpropyl)-5-(3-thienyl)-6-[[2-(trifluoromethyl)phenyl]methyl]-thieno[2,3-d]pyrimidine-2,4(1H,3H)-dione] | 113 to 114 |
| CC(C)Cn1c(=O)n(C)c(=O)c2c(CCC(=O)O)c(Cc3ccccc3C(F)(F)F)sc21 [Example 28, 1,2,3,4-Tetrahydro-3-methyl-1-(2-methylpropyl)-2,4-dioxo-6-[[2-(trifluoromethyl)phenyl]methyl]-thieno[2,3-d]pyrimidine-5-propanoic acid] | 165 to 167 |
